Experimental data as given in ChEMBL document CHEMBL1201862, “PubChem BioAssay data set” (2004).
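1) Cells in 96-well plates. 2) Compound, 48 h, 5 concentrations. 3) Linear interpolation between surrounding doses. 4) Unreached endpoint = highest concentration. Abbreviation: GI50, concentration required for 50% inhibition of growth.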 Active and inactive are the calls of the source. No stated cut-off is given here; in the data, active = GI50 up to about 1.1 µM and inactive = higher.

Legend:
Test in all cases: growth of human tumour cells (NCI), 48 h
[1] = system: OVCAR-3
[2] = system: A549
[3] = system: NCI-H23
[4] = system: Hs-578T
[5] = system: NCI-H226
[6] = system: BT-549
[7] = system: SK-MEL-28
[8] = system: SK-MEL-2
[9] = system: HT-29
[10] = system: NCI/ADR-RES
[11] = system: MDA-MB-231
[12] = system: CCRF-CEM
[13] = system: NCI-H460
[14] = system: COLO 205
[15] = system: K562
[16] = system: MDA-N
[17] = system: U-251
[18] = system: HCC 2998
[19] = system: OVCAR-8
[20] = system: ACHN
[21] = system: DU-145
[22] = system: EKVX
[23] = system: MOLT-4
[24] = system: UACC-257
[25] = system: SN12C
[26] = system: MDA-MB-435
[27] = system: Malme-3M
[28] = system: UACC-62
[29] = system: OVCAR-4
[30] = system: SF-539
[31] = system: A498
[32] = system: HOP-62
[33] = system: M14
[34] = system: SW-620
[35] = system: CAKI-1
[36] = system: RPMI-8226
[37] = system: SNB-75
[38] = system: SF-295
[39] = system: MCF7
[40] = system: HCT-15
[41] = system: UO-31
[42] = system: HCT-116
[43] = system: KM12
[44] = system: SNB-19
[45] = system: SF-268
[46] = system: 786-0
[47] = system: T47D
[48] = system: PC-3
[49] = system: OVCAR-5
[50] = system: SK-OV-3
[51] = system: SR
[52] = system: SK-MEL-5
[53] = system: NCI-H522
[54] = system: TK-10
[55] = system: IGROV-1
[56] = system: HOP-92
[57] = system: LOX IMVI
[58] = system: RXF 393

Q: Which results are given for O=C1c2ccccc2-c2c1c(-c1ccc([N+](=O)[O-])cc1)nc1ccc3ccccc3c21?
A: GI50 [1]: > 100 µM (inactive); GI50 [2]: > 100 µM (inactive); GI50 [3]: > 100 µM (inactive); GI50 [4]: > 100 µM (inactive); GI50 [5]: > 100 µM (inactive); GI50 [6]: > 100 µM (inactive); GI50 [7]: > 100 µM (inactive); GI50 [8]: > 100 µM (inactive); GI50 [9]: > 100 µM (inactive); GI50 [10]: > 100 µM (inactive); GI50 [11]: > 100 µM (inactive); GI50 [12]: > 100 µM (inactive); GI50 [13]: > 100 µM (inactive); GI50 [14]: > 100 µM (inactive); GI50 [15]: > 100 µM (inactive); GI50 [16]: > 100 µM (inactive); GI50 [17]: > 100 µM (inactive); GI50 [18]: > 100 µM (inactive); GI50 [19]: > 100 µM (inactive); GI50 [20]: > 100 µM (inactive); GI50 [21]: > 100 µM (inactive); GI50 [22]: > 100 µM (inactive); GI50 [23]: > 100 µM (inactive); GI50 [24]: > 100 µM (inactive); GI50 [25]: > 100 µM (inactive); GI50 [26]: > 100 µM (inactive); GI50 [27]: > 100 µM (inactive); GI50 [28]: > 100 µM (inactive); GI50 [29]: > 100 µM (inactive); GI50 [30]: > 100 µM (inactive); GI50 [31]: > 100 µM (inactive); GI50 [32]: > 100 µM (inactive); GI50 [33]: > 100 µM (inactive); GI50 [34]: > 100 µM (inactive); GI50 [35]: > 100 µM (inactive); GI50 [36]: > 100 µM (inactive); GI50 [37]: > 100 µM (inactive); GI50 [38]: > 100 µM (inactive); GI50 [39]: > 100 µM (inactive); GI50 [40]: > 100 µM; GI50 [41]: > 100 µM (inactive); GI50 [42]: > 100 µM (inactive); GI50 [43]: > 100 µM (inactive); GI50 [44]: > 100 µM (inactive); GI50 [45]: > 100 µM (inactive); GI50 [46]: > 100 µM (inactive); GI50 [47]: > 100 µM (inactive); GI50 [48]: > 100 µM (inactive); GI50 [49]: > 100 µM (inactive); GI50 [50]: > 100 µM (inactive)

Q: For CCOC(=O)c1nc2ccccc2nc1NCc1ccc(Cl)cc1Cl, which GI50 [1] is on record?
A: > 100 µM (inactive)

Q: What about the GI50 [51] of the same compound?
A: 60.7 µM (inactive)

Q: And the GI50 [52]?
A: > 100 µM (inactive)

Q: And the GI50 [2]?
A: > 100 µM (inactive)

Q: What about the GI50 [3] of the same compound?
A: > 100 µM (inactive)

Q: And the GI50 [4]?
A: 65.6 µM (inactive)

Q: And the GI50 [5]?
A: > 100 µM (inactive)

Q: What about the GI50 [6] of the same compound?
A: > 100 µM (inactive)

Q: What about the GI50 [8] of the same compound?
A: > 100 µM (inactive)

Q: And the GI50 [9]?
A: > 100 µM (inactive)

Q: What about the GI50 [10] of the same compound?
A: > 100 µM (inactive)

Q: What about the GI50 [11] of the same compound?
A: > 100 µM (inactive)

Q: And the GI50 [12]?
A: > 100 µM (inactive)

Q: And the GI50 [13]?
A: 35 µM (inactive)

Q: And the GI50 [14]?
A: > 100 µM (inactive)

Q: What about the GI50 [53] of the same compound?
A: > 100 µM (inactive)

Q: What about the GI50 [15] of the same compound?
A: > 100 µM (inactive)

Q: And the GI50 [16]?
A: 96.8 µM (inactive)

Q: And the GI50 [17]?
A: > 100 µM (inactive)

Q: And the GI50 [19]?
A: > 100 µM (inactive)

Q: What about the GI50 [20] of the same compound?
A: > 100 µM (inactive)

Q: And the GI50 [54]?
A: > 100 µM (inactive)

Q: And the GI50 [22]?
A: > 100 µM (inactive)

Q: What about the GI50 [23] of the same compound?
A: > 100 µM (inactive)

Q: What about the GI50 [24] of the same compound?
A: > 100 µM (inactive)

Q: What about the GI50 [26] of the same compound?
A: 97.9 µM (inactive)

Q: What about the GI50 [27] of the same compound?
A: > 100 µM (inactive)

Q: What about the GI50 [28] of the same compound?
A: > 100 µM (inactive)

Q: What about the GI50 [55] of the same compound?
A: > 100 µM (inactive)

Q: What about the GI50 [29] of the same compound?
A: > 100 µM (inactive)

Q: And the GI50 [30]?
A: > 100 µM (inactive)

Q: And the GI50 [31]?
A: > 100 µM (inactive)

Q: What about the GI50 [32] of the same compound?
A: > 100 µM (inactive)

Q: What about the GI50 [33] of the same compound?
A: > 100 µM (inactive)

Q: And the GI50 [56]?
A: > 100 µM (inactive)

Q: What about the GI50 [34] of the same compound?
A: > 100 µM (inactive)

Q: What about the GI50 [57] of the same compound?
A: > 100 µM (inactive)

Q: What about the GI50 [35] of the same compound?
A: > 100 µM (inactive)

Q: And the GI50 [36]?
A: > 100 µM (inactive)

Q: And the GI50 [37]?
A: 23.6 µM (inactive)

Q: What about the GI50 [38] of the same compound?
A: > 100 µM (inactive)

Q: What about the GI50 [39] of the same compound?
A: > 100 µM (inactive)

Q: And the GI50 [40]?
A: > 100 µM

Q: And the GI50 [41]?
A: > 100 µM (inactive)

Q: And the GI50 [42]?
A: > 100 µM (inactive)

Q: What about the GI50 [43] of the same compound?
A: > 100 µM (inactive)

Q: What about the GI50 [44] of the same compound?
A: > 100 µM (inactive)

Q: What about the GI50 [45] of the same compound?
A: > 100 µM (inactive)

Q: What about the GI50 [58] of the same compound?
A: > 100 µM (inactive)

Q: And the GI50 [46]?
A: > 100 µM (inactive)

Q: And the GI50 [47]?
A: > 100 µM (inactive)

Q: And the GI50 [48]?
A: > 100 µM (inactive)

Q: And the GI50 [49]?
A: > 100 µM (inactive)

Q: What about the GI50 [50] of the same compound?
A: > 100 µM (inactive)

Q: Which results are given for Cc1ccc(-n2c(Cn3nnc(-c4cccnc4)n3)nn(C3OC(COC(=O)c4ccccc4)C(OC(=O)c4ccccc4)C3OC(=O)c3ccccc3)c2=S)cc1 (centres undefined)?
A: GI50 [1]: > 100 µM (inactive); GI50 [52]: > 100 µM (inactive); GI50 [2]: > 100 µM (inactive); GI50 [3]: > 100 µM (inactive); GI50 [4]: > 100 µM (inactive); GI50 [5]: > 100 µM (inactive); GI50 [6]: > 100 µM (inactive); GI50 [7]: > 100 µM (inactive); GI50 [8]: > 100 µM (inactive); GI50 [9]: > 100 µM (inactive); GI50 [10]: > 100 µM (inactive); GI50 [11]: > 100 µM (inactive); GI50 [12]: > 100 µM (inactive); GI50 [13]: > 100 µM (inactive); GI50 [14]: > 100 µM (inactive); GI50 [53]: > 100 µM (inactive); GI50 [15]: > 100 µM (inactive); GI50 [16]: > 100 µM (inactive); GI50 [17]: > 100 µM (inactive); GI50 [18]: > 100 µM (inactive); GI50 [19]: > 100 µM (inactive); GI50 [20]: > 100 µM (inactive); GI50 [54]: > 100 µM (inactive); GI50 [21]: > 100 µM (inactive); GI50 [22]: > 100 µM (inactive); GI50 [23]: > 100 µM (inactive); GI50 [24]: > 100 µM (inactive); GI50 [25]: > 100 µM (inactive); GI50 [26]: > 100 µM (inactive); GI50 [27]: 38.4 µM (inactive); GI50 [28]: > 100 µM (inactive); GI50 [55]: > 100 µM (inactive); GI50 [29]: > 100 µM (inactive); GI50 [30]: > 100 µM (inactive); GI50 [32]: > 100 µM (inactive); GI50 [33]: > 100 µM (inactive); GI50 [34]: > 100 µM (inactive); GI50 [57]: > 100 µM (inactive); GI50 [35]: > 100 µM (inactive); GI50 [36]: > 100 µM (inactive); GI50 [37]: 52.6 µM (inactive); GI50 [38]: > 100 µM (inactive); GI50 [39]: > 100 µM (inactive); GI50 [40]: > 100 µM; GI50 [41]: > 100 µM (inactive); GI50 [42]: > 100 µM (inactive); GI50 [43]: > 100 µM (inactive); GI50 [44]: 32.3 µM (inactive); GI50 [45]: > 100 µM (inactive); GI50 [58]: > 100 µM (inactive); GI50 [46]: > 100 µM (inactive); GI50 [47]: > 100 µM (inactive); GI50 [48]: > 100 µM (inactive); GI50 [49]: > 100 µM (inactive); GI50 [50]: > 100 µM (inactive)
